These compounds were tested against T1, Aldo-keto reductase family 1 member B1 (Sus scrofa, UniProt P80276) (assay: Inhibition of aldose reductase from pig lenses; no inhibition).

Row | Compound | IC50 [µM]
1 | CC(OCc1ccc(Cl)cc1)C(NC(=O)CC(C)(C)C)C(=O)O (stereo not drawn) | > 400
2 | CC(OCc1ccccc1)C(NC(=O)OCc1ccccc1)C(=O)O (stereo not drawn) | > 300

These compounds were tested against T1, Aldo-keto reductase family 1 member B1 (assay: Inhibition of aldose reductase from pig lenses).

Row | Compound | IC50 [µM]
3 | O=C(O)c1nnn(-c2cccc(Br)c2)c1-c1ccccc1 | 274
4 | Clc1ccc(CN(Cc2ccc(Cl)cc2)c2nnn[nH]2)cc1 | 336
5 | O=C(O)Cc1cn(Cc2cccc(Cl)c2)c2ccccc12 | 14
6 | COc1ccc2c(C(=S)N(C)CC(=O)O)cccc2c1C(F)(F)F [TOLRESTAT] | 0.038
7 | O=C(O)C1CC(=O)N(Cc2ccc(Cl)cc2)C1 (stereo not drawn) | 8
8 | O=C1NC(=O)[C@@]2(CCOc3ccc(F)cc32)N1 [SORBINIL] | 1.1

Reference: ChEMBL document CHEMBL1138775, “Soft docking and multiple receptor conformations in virtual screening” (J Med Chem, 2004)
